From US20110053916A1 (Vertex Pharmaceuticals Incorporated, priority 2009, published 2011) come the findings set out here.

One may read the Ki as a measure of affinity in units of concentration, obtained from inhibition or displacement.

The test system of experiment [1] is Mycobacterium tuberculosis H37Ra. Briefly: Mycobacterium tuberculosis growth inhibition assay (microtiter dilution, resazurin reduction). In kind it is cell-based. The settings on record: 7H9 broth, 9 days + 24 h resazurin, lowest concentration inhibiting resazurin reduction by >70%, several symbols in a cell = repeat determinations. A digest of the protocol: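 M. tuberculosis H37Ra at ~1×10^6 cells/mL in 7H9 broth plus 10% ADC, exposed to 2-fold serial dilutions (7 or 11 steps) at 37 °C for 9 days. Resazurin then added, fluorescence (492/595 nm) read at baseline and after 24 h; MIC = lowest concentration inhibiting resazurin reduction >70% versus DMSO.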

The target in experiment [2] is T1, PknB (Mycobacterium tuberculosis, UniProt P9WI81).
T1 construct: made in house
T1 sequence (P9WI81 whole entry): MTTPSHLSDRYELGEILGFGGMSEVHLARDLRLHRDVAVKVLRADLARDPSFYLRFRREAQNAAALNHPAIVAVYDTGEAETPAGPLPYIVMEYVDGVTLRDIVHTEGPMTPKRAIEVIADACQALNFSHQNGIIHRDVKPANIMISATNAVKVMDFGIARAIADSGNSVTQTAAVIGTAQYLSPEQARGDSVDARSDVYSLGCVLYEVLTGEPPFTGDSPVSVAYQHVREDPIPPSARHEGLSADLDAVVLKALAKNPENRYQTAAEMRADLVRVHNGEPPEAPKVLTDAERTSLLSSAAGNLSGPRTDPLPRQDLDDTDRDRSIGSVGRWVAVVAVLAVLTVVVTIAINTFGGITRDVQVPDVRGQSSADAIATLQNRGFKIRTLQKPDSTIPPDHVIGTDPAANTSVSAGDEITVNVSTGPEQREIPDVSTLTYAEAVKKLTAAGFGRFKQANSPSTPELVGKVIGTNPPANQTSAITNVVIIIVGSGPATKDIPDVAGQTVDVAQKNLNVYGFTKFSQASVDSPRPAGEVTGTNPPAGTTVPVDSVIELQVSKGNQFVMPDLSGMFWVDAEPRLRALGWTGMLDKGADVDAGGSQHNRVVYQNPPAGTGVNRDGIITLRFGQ
Briefly: biochemical. Also on record: species or system M. tuberculosis. The note with it: for Ki: read-out: Ki Values.

Setting [3] is: 3 nM PknB, 6 uM GarA, 3 μM ATP, 30 min, competitive tight-binding fit, several symbols in a cell = repeat determinations.

Molecules are shown by their SMILES. Structures can show the parent of a compound that is named as a salt. Where two headings read alike, the source gives them in different places. Some results are limits rather than exact numbers.

With `Nc1cc(Nc2cc(C3CC3)n[nH]2)nc(-c2ccc(S(N)(=O)=O)s2)n1` [Compound 294, 5-[4-amino-6-[(5-cyclopropyl-2H-pyrazol-3-yl)amino]-pyrimidin-2-yl]thiophene-2-sulfonamide], the MIC values result in experiment [1] is on record as “B+”. Moreover, the Ki in experiment [2] (setting [3]) fell in the range of 2000 to 4000 nM.

Consider `OC1/C=C\c2c(n[nH]c2C2CC2)Nc2nc(ncc2Cl)-c2ccccc21` (stereo not shown) [Compound 232, chloro-cyclopropyl-BLAHol], for which the MIC values result in experiment [1] is on record as “B, C”. Moreover, the Ki in experiment [2] (setting [3]) is greater than 4000 nM.

In the case of `NS(=O)(=O)c1ccc(-c2ccc([N+](=O)[O-])c(Nc3cc(C4CC4)n[nH]3)n2)s1` [Compound 275, 5-[6-[(5-cyclopropyl-2H-pyrazol-3-yl)amino]-5-nitro-2-pyridyl]thiophene-2-sulfonamide], the MIC values result in experiment [1] was “B++”. In addition, in experiment [2] (setting [3]), the Ki lay within 1 to 10 nM.

As to `Cc1cc(-c2ccc(S(N)(=O)=O)s2)nc(Nc2cc(C3CC3)n[nH]2)n1` [Compound 322, 5-[2-[(5-cyclopropyl-2H-pyrazol-3-yl)amino]-6-methyl-pyrimidin-4-yl]thiophene-2-sulfonamide], in experiment [1], the MIC values result is reported as “B++”. In addition, in experiment [2] (setting [3]), the Ki was in the range of 1 to 10 nM.

For `CC(C)(C)NS(=O)(=O)c1ccc(-c2nccc(Nc3cc(C4CC4)[nH]n3)n2)cn1` [Compound 300, 5-[4-[(5-cyclopropyl-1H-pyrazol-3-yl)amino]pyrimidin-2-yl]-N-tert-butyl-pyridine-2-sulfonamide], in experiment [1], the MIC values entry was “B+”. Also, the Ki in experiment [2] (setting [3]) lay in the range of 50 to 100 nM.

Regarding `CCOC(=O)C(O)c1ccc(-c2ncc(Cl)c(Nc3cc(C4CC4)[nH]n3)n2)s1` (stereo not shown) [Compound 191, Ethyl 2-(5-(5-chloro-4-(5-cyclopropyl-1H-pyrazol-3-ylamino)pyrimidin-2-yl)thiophen-2-yl)-2-hydroxyacetate], the MIC values entry in experiment [1] is given as “B, C”. Also, the “Ki Values” in experiment [2] (setting [3]) is “A*, B**”.

With `C#Cc1cnc(Nc2ccc3[nH]ncc3c2)nc1Nc1cc(C2CC2)[nH]n1` [Compound 91, N^4-(5-cyclopropyl-1H-pyrazol-3-yl)-5-ethynyl-N^2-(1H-indazol-5-yl)pyrimidine-2,4-diamine], the MIC values entry in experiment [1] was “B+”. For the same compound, the Ki in experiment [2] (setting [3]) is 10 to 50 nM.

With `C#Cc1cnc(-c2ccc(C(C)=O)s2)nc1Nc1cc(C2CC2)[nH]n1` [Compound 111, 1-(5-(4-(5-Cyclopropyl-1H-pyrazol-3-ylamino)-5-ethynylpyrimidin-2-yl)thiophen-2-yl)ethanone], in experiment [1], the MIC values entry is “B++, B”. Also, the “Ki Values” in experiment [2] (setting [3]) was “A**, A*”.

Regarding `OCc1ccc(-c2ncc(Cl)c(Nc3cc(C4CC4)[nH]n3)n2)s1` [Compound 25, [5-[5-chloro-4-[(5-cyclopropyl-1H-pyrazol-3-yl)amino]-pyrimidin-2-yl]-2-thienyl]methanol], in experiment [1], the MIC values result is listed as “B+”. The Ki in experiment [2] (setting [3]) was 10 to 50 nM.

For the compound `C#Cc1cnc(-c2ccc([C@H](C)O)s2)nc1Nc1cc(C2CC2)n[nH]1` [Compound 198, (S)-1-(5-(4-(3-cyclopropyl-1H-pyrazol-5-ylamino)-5-ethynylpyrimidin-2-yl)thiophen-2-yl)ethanol], in experiment [1], the MIC values result is “A, A, A, B++”. Also, the Ki in experiment [2] (setting [3]) is 1 to 10 nM.

With `Cc1cnc(-c2ccc([C@@H](C)O)s2)nc1Nc1cc(C2CC2)[nH]n1` [Compound 145, (R)-1-(5-(4-(5-cyclopropyl-1H-pyrazol-3-ylamino)-5-methylpyrimidin-2-yl)thiophen-2-yl)ethanol], in experiment [1], the MIC values result is reported as “B++, B+”. Also, the Ki in experiment [2] (setting [3]) was 50 to 100 nM.

As for `C=CCCC(=O)c1ncc(Cl)c(Nc2cc(C3CC3)[nH]n2)n1` [Compound 256, 1-[5-chloro-4-[(5-cyclopropyl-1H-pyrazol-3-yl)amino]-pyrimidin-2-yl]pent-4-en-1-one], the MIC values result in experiment [1] is recorded as “B+”. Moreover, the Ki in experiment [2] (setting [3]) was 500 to 1000 nM.

On to `O=S(=O)(c1ccc(-c2ncc(Cl)c(Nc3cc(C4CC4)[nH]n3)n2)s1)n1cccc1` [Compound 307, 5-chloro-N-(5-cyclopropyl-1H-pyrazol-3-yl)-2-(5-pyrrol-1-ylsulfonyl-2-thienyl)-pyrimidin-4-amine], for which, in experiment [1], the MIC values entry is recorded as “B+”. In experiment [2] (setting [3]), the Ki lay in the range of 10 to 50 nM.

For `CNS(=O)(=O)c1ccc(-c2ncc(Cl)c(Nc3cc(C4CC4)n[nH]3)n2)cc1` [Compound 117, 4-[5-chloro-4-[(5-cyclopropyl-2H-pyrazol-3-yl)amino]-pyrimidin-2-yl]-N-methyl-benzenesulfonamide], the MIC values result in experiment [1] was “A, C, C”. Further, the “Ki Values” in experiment [2] (setting [3]) is listed as “A*, A”.

With `NS(=O)(=O)c1ccc(-c2ncc(CO)c(Nc3cc(C4CC4)n[nH]3)n2)s1` [Compound 171, 5-(4-(5-cyclopropyl-1H-pyrazol-3-ylamino)-5-(hydroxymethyl)pyrimidin-2-yl)thiophene-2-sulfonamide], in experiment [1], the MIC values result is given as “B++”. In addition, the “Ki Values” in experiment [2] (setting [3]) was “A, B**, B**”.

Consider `Oc1cccc(-c2ncc(Cl)c(Nc3cc(C4CC4)[nH]n3)n2)c1` [Compound 104, 3-[5-chloro-4-[(5-cyclopropyl-1H-pyrazol-3-yl)amino]-pyrimidin-2-yl]phenol], for which, in experiment [1], the MIC values result was “B++, C”. Also, the “Ki Values” in experiment [2] (setting [3]) was “A*, A”.

As to `C[C@@H](O)c1ccc(-c2ncc(Cl)c(Nc3cc(C4CC4)[nH]n3)n2)s1` (stereo in doubt) [Compound 133, 1-[5-[5-chloro-4-[(5-cyclopropyl-1H-pyrazol-3-yl)amino]-pyrimidin-2-yl]-2-thienyl]ethanol], the MIC values result in experiment [1] is reported as “B++”. For the same compound, in experiment [2] (setting [3]), the “Ki Values” is listed as “A**, A*”.

On to `CC(C)(C)NS(=O)(=O)c1ccc(-c2ccc(N)c(Nc3cc(C4CC4)n[nH]3)n2)s1` [Compound 273, 5-[5-amino-6-[(5-cyclopropyl-2H-pyrazol-3-yl)amino]-2-pyridyl]-N-tert-butyl-thiophene-2-sulfonamide], for which the MIC values result in experiment [1] is “B+”. In addition, the Ki in experiment [2] (setting [3]) fell in the range of 10 to 50 nM.

For the compound `CC(C)(C)NS(=O)(=O)c1ccc(-c2ncc(Cl)c(Nc3cc(C4CCN(C(=O)OCc5ccccc5)C4)n[nH]3)n2)s1` (stereo not shown) [Compound 257, benzyl 3-[5-[[5-chloro-2-[5-(tert-butylsulfamoyl)-2-thienyl]-pyrimidin-4-yl]amino]-1H-pyrazol-3-yl]pyrrolidine-1-carboxylate], the MIC values result in experiment [1] is recorded as “B++”. Moreover, the Ki in experiment [2] (setting [3]) was greater than 4000 nM.

As for `CN(C)S(=O)(=O)c1ccc(-c2ncc(Cl)c(Nc3cc(C4CC4)[nH]n3)n2)s1` [Compound 74, 5-[5-chloro-4-[(5-cyclopropyl-1H-pyrazol-3-yl)amino]-pyrimidin-2-yl]-N,N-dimethyl-thiophene-2-sulfonamide], the MIC values result in experiment [1] was “A, B++, C”. Also, the Ki in experiment [2] (setting [3]) was 1 to 10 nM.

As for `C#Cc1cnc(-c2ccc(C(O)CCCO)s2)nc1Nc1cc(C2CC2)[nH]n1` (stereo not shown) [Compound 223, 1-[5-[4-[(5-cyclopropyl-1H-pyrazol-3-yl)amino]-5-ethynyl-pyrimidin-2-yl]-2-thienyl]butane-1,4-diol], the MIC values entry in experiment [1] is given as “B++”. The inhibition constant Ki in experiment [2] (setting [3]) lay in the range of 1 to 10 nM.

On to `CNc1cc(Nc2cc(C3CC3)n[nH]2)nc(-c2ccc(S(N)(=O)=O)s2)n1` [Compound 279, 5-[4-[(5-cyclopropyl-2H-pyrazol-3-yl)amino]-6-methylamino-pyrimidin-2-yl]thiophene-2-sulfonamide], for which the MIC values result in experiment [1] is on record as “B++”. Also, in experiment [2] (setting [3]), the Ki fell in the range of 1000 to 2000 nM.

As to `NC(=O)c1cc(-c2nccc(Nc3cc(C4CC4)[nH]n3)n2)ccc1Cl` [Compound 51, 2-chloro-5-[4-[(5-cyclopropyl-1H-pyrazol-3-yl)amino]pyrimidin-2-yl]-benzamide], the MIC values result in experiment [1] is given as “B++”. The Ki in experiment [2] (setting [3]) fell in the range of 50 to 100 nM.

As to `NCc1ccc(-c2ncc(Cl)c(Nc3cc(C4CC4)n[nH]3)n2)s1` [Compound 141, 2-(5-(aminomethyl)thiophen-2-yl)-5-chloro-N-(3-cyclopropyl-1H-pyrazol-5-yl)pyrimidin-4-amine hydrochloride], the MIC values result in experiment [1] was “B, C, C”. In addition, the “Ki Values” in experiment [2] is recorded as “A, A, B**”.

For `CC(C)(C#N)c1ccc(-c2ncc(Cl)c(Nc3cc(C4CC4)[nH]n3)n2)s1` [Compound 238, 2-[5-[5-chloro-4-[(5-cyclopropyl-1H-pyrazol-3-yl)amino]-pyrimidin-2-yl]-2-thienyl]-2-methyl-propanenitrile], the MIC values result in experiment [1] was “B++”. Besides, in experiment [2] (setting [3]), the Ki was 1 to 10 nM.

For the compound `N#CCc1ccc(-c2ncc(Cl)c(Nc3cc(C4CC4)[nH]n3)n2)cc1` [Compound 18, 2-(4-(5-chloro-4-(5-cyclopropyl-1H-pyrazol-3-ylamino)pyrimidin-2-yl)phenyl)acetonitrile], the MIC values entry in experiment [1] is reported as “B, B, C”. Also, in experiment [2] (setting [3]), the “Ki Values” is “A**, A*”.

Regarding `Cc1cnc(-c2ccc([C@H](C)O)s2)nc1Nc1cc(C2CC2)[nH]n1` [Compound 146, (S)-1-(5-(4-(5-cyclopropyl-1H-pyrazol-3-ylamino)-5-methylpyrimidin-2-yl)thiophen-2-yl)ethanol], the MIC values result in experiment [1] is on record as “B++”. Also, in experiment [2] (setting [3]), the “Ki Values” is “A*, A**”.

For the compound `CC(=O)OCCc1cnc(-c2ccc(S(N)(=O)=O)s2)nc1Nc1cc(C2CC2)[nH]n1` [Compound 313, 2-(4-(5-cyclopropyl-1H-pyrazol-3-ylamino)-2-(5-sulfamoylthiophen-2-yl)pyrimidin-5-yl)ethyl acetate], in experiment [1], the MIC values result was “A+”. Also, the Ki in experiment [2] (setting [3]) fell in the range of 10 to 50 nM.

Consider `CN(C)CCNS(=O)(=O)c1ccc(-c2ncc(Cl)c(Nc3cc(C4CC4)[nH]n3)n2)s1` [Compound 79, 5-[5-chloro-4-[(5-cyclopropyl-1H-pyrazol-3-yl)amino]-pyrimidin-2-yl]-N-(2-dimethylaminoethyl)thiophene-2-sulfonamide], for which the MIC values result in experiment [1] is on record as “B+, B”. Further, the Ki in experiment [2] (setting [3]) lay within 10 to 50 nM.
